# Results as given in patent publication US20190167579A1, “ITRACONAZOLE DRY POWDERS” (priority 2017, published 2019).
# Tested on: Calu-3 cell line
# Assay: cNGI integrated dissolution and permeability on Calu-3 monolayers
# Format: in vitro ADME
# Description: A bio-relevant dissolution testing system was used based on mimicking the air-liquid interface at the respiratory epithelium interface using a cell-based in vitro method. A modified next generation impactor that incorporated cell culture plates onto collection stages (cNGI) was used to uniformly deposit materials onto the cell cultures. Dissolution and permeation of the drug through the epithelial cell monolayer was measured.
# Epithelial cell monolayers grown at the air-liquid interface in Snapwell™ (Corning Costar, Massachusetts, USA) permeable insert were integrated into the cNGI. […] The transepithelial electrical resistance (TEER) was measured using an EVOM2 chopstick electrode connected to an EVOM2 Epithelial Voltohmmeter (World Precision Instruments, Hitchin, United Kingdom) and monolayers with a TEER above 450 Ω·cm^2 were deemed confluent. […]
# Post-dosing of the dose on to the Snapwells from stage 4, the Snapwells were transferred to 6-well plates, which contained 2mL of PBS pH 7.4±2.0% SDS maintained at 37° C. Basolateral samples were taken at different time points and drug content was measured on an Agilent (Santa Clara, Calif., USA) 1260 Infinity series HPLC. Total dose delivered to the cells was measured from the total amount of drug dissolved over the time-course and from lysing cells post experimentation. […]
compound,measurement,value
"CCC(C)n1ncn(-c2ccc(N3CCN(c4ccc(OCC5COC(Cn6cncn6)(c6ccc(Cl)cc6Cl)O5)cc4)CC3)cc2)c1=O (stereo not shown) [Pure ITZ, Itraconazole]","Dissolution and permeability kinetics, comparison",slower
